The record followed here is patent US20240398737A1, “FUNCTIONALIZED LONG-CHAIN HYDROCARBON MONO- AND DI-CARBOXYLIC ACIDS AND DERIVATIVES THEREOF, AND THEIR USE FOR THE PREVENTION OR TREATMENT OF DISEASE” (Espervita Therapeutics, Inc., priority 2021, published 2024).

One may read the IC50 as the point on the concentration scale where inhibition reaches its midpoint.

The test system of data set [1] is Mouse primary hepatocytes. The data set can be described thus: 14C-acetate incorporation into total lipids in mouse primary hepatocytes. Type of data set: cell-based. The conditions noted are these: incorporation of 14C-acetate in primary mouse hepatocyte total lipids, 4 hours; for inhibition at 100 µM: read-out: % change from control at 100 μM ± SEM(n). The procedure:
After perfusion, collagen digested liver cells were re-suspended in William's E media (11 mM glucose) (Gibco) supplemented with 10% fetal bovine serum (FBS) (Gibco), 2 mM L-glutamine (Gibco) and 1% Antibiotic-Antimycotic (Gibco) mixture and seeded in white opaque 96-well plates. On the following day, the cells were serum-starved for 2 hours, then treated with 0 μM, 0.1 μM, 0.3 μM, 0.5 μM, 1 μM, 3 μM, 10 μM, and 100 μM of Compound I-32, Compound I-1, Compound III-1 or Reference Compound (e.g., any of Compounds A-E or bempedoic acid) in the presence of ^14C-Acetate (1 μCi/ml, PerkinElmer). Each of Compound I-32, Compound I-1, Compound III-1, and Reference Compound was solubilized in 100% DMSO to a final concentration of 100 mM stock solution. In the experimental condition, the stock solution was diluted in serum free media (William's E media (11 mM glucose) (Gibco), 2 mM L-glutamine (Gibco) and 1% Antibiotic-Antimycotic) to yield the desired concentration of each compound. […] After 4 hours of treatment, the plates were washed two times with PBS (×1) and 100 μL microscint fluid (Microscint 0, part #601361) was added in each well. Plates were wrapped with aluminum foil and were shaken at 250 rpm for 2 h. After 2 h of shaking, ^14C incorporation into lipid was determined by liquid scintillation counting using a TopCount NXT Microplate Scintillation and Luminescence Counter (Perkin Elmer).
The effects of Compound I-32, Compound I-1, and Compound III-1 on mouse primary hepatocyte lipogenesis are represented in Table 13. Each Compound was assayed at a concentration of 0 μM (vehicle control), 0.1 μM, 0.3 μM, 0.5 μM, 1 μM, 3 μM, 10 μM, and 100 μM, unless otherwise noted. Statistically significant inhibition was determined by one-way ANOVA and Dennett's post hoc test where appropriate. […] IC50 values were determined by nonlinear regression. All statistical analyses were carried out using GraphPad Prism 8 software. A p-value of less than or equal 0.05 was considered significant.

Data set [2] concerns human hematopoietic stem and progenitor cells. The experiment in a line: Megakaryopoiesis and platelet production in cultured human hematopoietic stem and progenitor cells. The conditions noted are these: added day 0, 8 days culture, I-32 and I-1 30 μM, ABT-737 6 μmol. Type of data set: cell-based. As to the method: Materials and Methods. Hematopoietic stem and progenitor cells, identified as viable CD45+ CD34+ cells, were isolated from peripheral blood of healthy donors by a method known in the art (see Ivetic N, Nazi I, Karim N et al. Producing megakaryocytes from a human peripheral blood source. Transfusion 2016; 56:1066-74). These isolated cells were then analyzed for purity before being expanded for four days using a commercial supplement to increase their cell population. After expansion, the cells were analyzed for purity, washed, and stimulated with a saturating concentration of thrombopoietin (20 ng/mL) and stem cell factor (50 ng/mL) to begin megakaryopoiesis. Compound I-32 and Compound I-1 were added at this timepoint at a concentration of 30 μM. The cells were then cultured for 8 days to develop into megakaryocytes and analyzed via flow cytometry to assess their number, maturity, and platelet count as defined by CD41a, CD42b and Calcein-AM expression. In addition, Compound I-32 and Compound I-1 were added to cells during the later stages of development (day 6) to assess their impact on maturation. ABT-737 (6 μmol) was used as a positive control and a DMSO vehicle control (<0.15% v/v) was the negative control. All counts are normalized to a media control (PBS) as a reference for basic cell growth.
Statistical analysis. Statistical analyses were carried out by comparing effects on measured parameters in comparison to vehicle control. A value of […] (One-way ANOVA multiple comparisons) was considered as significant.
Two isolations were performed from two healthy donors (2 males) and used to assess the impacts of Compound I-32 and Compound I-1. For one of the isolations, enough expanded hematopoietic stem and progenitor cells (HSPC) (Experiment 1) were obtained so that the addition of the compounds on day 6 was also performed along with the initial experiment. For the other experiment (Experiment 2) only an 8-day incubation was performed.
All results were normalized to a reference media (PBS) and Compound I-32 and Compound I-1 were compared to a vehicle control. Reference compound ABT-737 is a known BCL-2 inhibitor and was used a positive control. Results in FIGS. 25A-25J are the summary of a single experiments conducted in triplicates. No statistical inhibition was detected for Compound I-32 or Compound I-1 (p>0.05 one-way ANOVA).

Data set [3] is described as follows: Synthesis of CoA derivatives in rat liver microsomes (LCMS detection). To be noted: 1 mM substrate, 30 min sample. Type of data set: in vitro ADME. As to the method: Reaction products were eluted using the gradient shown below: […]
Formation and detection of the Co-A derivatives of Compounds 1-32, 1-61, I-1 or III-1 in rat liver microsomes: 1 mM of each compound (Compounds I-32, I-61, I-1 or III-1) or palmitic acid (control) were used as substrate in the rat microsomal preparation for 0 and 30 min and extracted as described above. […] Further confirmation was obtained by exposing the compound to a collision energy causing the characteristic neutral loss of 3′-phosphonucleoside diphosphate (507 Da) producing the fragment ion 499.3 m/z. There was no evidence of the CoA derivative in the time 0 min sample.
On the technique in general: Microsomes from liver hold many membrane-bound enzymes, among them those of drug oxidation.

For a further data set, the target named is human ACLY (Homo sapiens (Human), UniProt P53396). The experiment in a line: ATP-citrate lyase (ACLY) enzymatic assay (ADP-Glo). Type of data set: biochemical. To be noted: recombinant human ACLY; 10 concentrations from 300 μM; Runs 1-3; read-out: Compound IC50 (M) ACLY. As to the method:
ATP citrate lyase was obtained from Sino Biological Inc. Cat #11769-H07B, Lot #LC08DE1701. It was prepared from a DNA sequence encoding the human ACLY (P53396) (Met 1-Met 1101) expressed in Baculovirus-Insect Cells, with a polyhistidine tag at the N-terminus. The recombinant human ACLY consists of 1120 amino acids and has a calculated molecular mass of 123 kDa. It migrates as an approximately 110 kDa band in SDS-PAGE under reducing conditions. The enzyme came as a lyophilized powder in sterile 20 mM Tris, 500 mM NaCl, pH 8.0, 10% glycine. Normally 5%-8% trehalose and mannitol are added as protectants before lyophilization. The recombinant human ACLY from Sino Biological was formulated in 45 mM Tris-HCl, pH 8.0, 124 mM NaCl, 2.4 mM KCl, 18 mM glutathione, 10% glycerol, and 3 mM DTT.
To detect ADP produced from ACL assay, the ADP-Glo™ assay format from Promega, Madison, WI, was used, to detect the conversion of ATP to ADP. […] This assay is performed in two steps: i) after the ACL-mediated enzymatic reaction that utilizes ATP and produces ADP, ADP-Glo™ Reagent is added to terminate the kinase reaction and deplete the remaining ATP, and ii) the Kinase Detection Reagent is added to convert ADP to ATP and allow the newly synthesized ATP to be measured using a luciferase/luciferin reaction. The light generated, measured in a luminometer, correlates to the amount of ADP generated in the ACL assay, which is indicative of ACL activity.
Data represent nM or μM ADP produced, % Activity (relative to no inhibitor controls), and curve fits were performed by GraphPad Prism software. The IC50 concentration-response curves were generated for ADPGlo™ using recombinant human ACL from Sino Biologicals Inc.
(In general: In ADP-Glo the light output rises with the ADP produced.)

Sequence of human ACLY (P53396 whole entry): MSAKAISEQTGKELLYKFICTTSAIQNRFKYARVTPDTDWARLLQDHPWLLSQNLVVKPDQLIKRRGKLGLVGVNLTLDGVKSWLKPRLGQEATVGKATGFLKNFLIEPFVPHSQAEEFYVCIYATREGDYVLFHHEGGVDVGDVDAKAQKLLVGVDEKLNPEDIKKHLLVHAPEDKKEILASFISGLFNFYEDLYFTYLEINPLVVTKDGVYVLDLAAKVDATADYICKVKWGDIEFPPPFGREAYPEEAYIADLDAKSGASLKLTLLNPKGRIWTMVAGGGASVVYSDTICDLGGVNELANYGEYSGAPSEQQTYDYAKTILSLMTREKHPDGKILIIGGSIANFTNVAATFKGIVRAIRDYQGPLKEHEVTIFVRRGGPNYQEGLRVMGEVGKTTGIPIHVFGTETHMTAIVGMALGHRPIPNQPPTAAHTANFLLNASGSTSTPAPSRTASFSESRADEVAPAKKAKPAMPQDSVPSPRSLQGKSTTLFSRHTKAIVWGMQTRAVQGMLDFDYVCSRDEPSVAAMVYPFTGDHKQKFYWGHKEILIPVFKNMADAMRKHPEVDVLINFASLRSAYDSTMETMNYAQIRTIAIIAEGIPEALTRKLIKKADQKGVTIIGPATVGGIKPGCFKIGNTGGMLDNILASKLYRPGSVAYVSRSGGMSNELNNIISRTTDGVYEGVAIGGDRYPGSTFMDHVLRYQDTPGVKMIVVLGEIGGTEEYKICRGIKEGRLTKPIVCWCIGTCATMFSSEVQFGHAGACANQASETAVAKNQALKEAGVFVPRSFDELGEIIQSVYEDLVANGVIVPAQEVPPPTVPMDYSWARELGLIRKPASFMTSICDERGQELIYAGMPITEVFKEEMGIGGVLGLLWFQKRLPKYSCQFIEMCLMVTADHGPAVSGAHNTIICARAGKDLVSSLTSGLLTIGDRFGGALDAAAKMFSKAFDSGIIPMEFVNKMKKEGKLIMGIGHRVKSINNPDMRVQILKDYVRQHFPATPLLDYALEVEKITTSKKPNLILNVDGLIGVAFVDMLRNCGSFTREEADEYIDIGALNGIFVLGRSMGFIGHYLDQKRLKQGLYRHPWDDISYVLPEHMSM

On to `CC(C)(CCCCCC(O)CCCCCC(C)(C)C(=O)O)C(=O)O` [BA, Bempedoic acid], for which the “% change from control at 100 μM ± SEM(n)” value in data set [1] was −79 ± 1.5 (n = 4) %.

As to `CC(C)(CCCCCCC(=O)CCCCCCC(C)(C)C(=O)O)C(=O)O` [E], in data set [1], the “% change from control at 100 μM ± SEM(n)” value is recorded as −62 ± 4.5 (n = 4) %.

Turning to `CN(C)CC[C@H](CSc1ccccc1)Nc1ccc(S(=O)(=O)NC(=O)c2ccc(N3CCN(Cc4ccccc4-c4ccc(Cl)cc4)CC3)cc2)cc1[N+](=O)[O-]` [ABT-737, reference compound], in data set [2], the “CD41a+ mean fluorescence intensity (MFI), normalized” value was found to be 46±34% and the “Normalized cell size (CD41a+)” value is listed as 81±6%. For the same molecule, in data set [2] (average±SD), the “CD41a CD42b+ counts (mature megakaryocytes), normalized to reference media control” value turned out to be 2±1%; the “CD41a+ cells (megakaryocytes), normalized to reference media control” value amounted to 9±5%; the “Platelet counts, normalized to reference media control” value amounted to 3±3%.

With `CC(C)(CO)CCCCC(=O)CCCCC(C)(C)C(=O)O` [B], in data set [1], it took 25.6 µM to reach half-maximal inhibition (IC50) and the inhibition at 100 µM came to 69 ± 2.3%.

Consider `CC(C)(CCCc1ccccc1CCCC(C)(C)C(=O)SCCNC(=O)CCNC(=O)[C@H](O)C(C)(C)COP(=O)(O)OP(=O)(O)OC[C@H]1O[C@@H](n2cnc3c(N)ncnc32)[C@H](O)[C@@H]1OP(=O)(O)O)C(=O)O` [I-61—CoA], for which the “Formation of the CoA derivative (LCMS detection, fragmentation confirmation)” value in data set [3] was “could not be confirmed”.

With `CC(C)(CO)CCCCC(=O)CCCCC(C)(C)CO` [A], the “% change from control at 100 μM ± SEM(n)” value in data set [1] is −41 ± 4.8 (n = 2) %.

`CC(C)(CO)CCCCCC(=O)CCCCCC(C)(C)CO` [D]: the “% change from control at 100 μM ± SEM(n)” value in data set [1] is −90 ± 1.5 (n = 4) %.

For `CC(C)(CCCCCC(=O)CCCCCC(C)(C)C(=O)O)C(=O)O` [C], in data set [1], the inhibition at 100 µM was found to be 76 ± 41%.

Regarding `CC(C)(CCCc1ccc(CCCC(C)(C)C(=O)O)cc1)C(=O)O` [III-1], in data set [1], the “% change from control at 100 μM ± SEM(n)” value is listed as −70 ± 2.2 (n = 4) %.

Consider `CC(C)(CCCCCCCCCCCC(C)(C)C(=O)O)C(=O)O` [F], for which, in data set [1], the “% change from control at 100 μM ± SEM(n)” value was −91 ± 3.6 (n = 4) %.

Take `COc1ccc(-c2ccccc2)cc1NS(=O)(=O)c1cc(Cl)cc(Cl)c1O` [BMS-303141, reference compound]: at human ACLY, the IC50 is 4.45e-07 M.
